Experimental data reported in the NIST ThermoML archive (doi:10.1016/j.jct.2014.03.001).
Numbers after ± are expanded uncertainties.

How the values were obtained:
[1] = mn = molality of the nth substance listed, in mol/kg; conditions: 84.51 kPa, Liquid; for speed of sound: Frequency=3 MHz, Sing-around technique in a fixed-path interferometer; for mass density: Vibrating tube method
[2] = 313.15 K; 84.51 kPa; Liquid; Frequency=3 MHz; Sing-around technique in a fixed-path interferometer

Cl.N [ammonium chloride (NH4Cl)] + O
speed of sound ([1]; 288.15 K, m1 = 0.035): 1468.2 ± 1.4 m/s
mass density ([1]; 288.15 K, m1 = 0.035): 999.719 ± 0.17 kg/m3
speed of sound ([1]; 293.15 K, m1 = 0.035): 1484.2 ± 1.4 m/s
mass density ([1]; 293.15 K, m1 = 0.035): 998.814 ± 0.17 kg/m3
speed of sound ([1]; 298.15 K, m1 = 0.035): 1498.4 ± 1.4 m/s
mass density ([1]; 298.15 K, m1 = 0.035): 997.645 ± 0.17 kg/m3
speed of sound ([1]; 303.15 K, m1 = 0.035): 1510.7 ± 1.4 m/s
mass density ([1]; 303.15 K, m1 = 0.035): 996.243 ± 0.17 kg/m3
speed of sound ([1]; 308.15 K, m1 = 0.035): 1521.3 ± 1.4 m/s
mass density ([1]; 308.15 K, m1 = 0.035): 994.624 ± 0.18 kg/m3
speed of sound ([1]; 313.15 K, m1 = 0.035): 1530.4 ± 1.4 m/s
mass density ([1]; 313.15 K, m1 = 0.035): 992.807 ± 0.18 kg/m3

[Cl][Fe]([Cl])[Cl] [ferric chloride] + O
speed of sound ([1]; 288.15 K, m1 = 0.035): 1470.9 ± 1.5 m/s
mass density ([1]; 288.15 K, m1 = 0.035): 1003.96 ± 0.2 kg/m3
speed of sound ([1]; 293.15 K, m1 = 0.035): 1486.8 ± 1.5 m/s
mass density ([1]; 293.15 K, m1 = 0.035): 1003.05 ± 0.2 kg/m3
speed of sound ([1]; 298.15 K, m1 = 0.035): 1500.8 ± 1.5 m/s
mass density ([1]; 298.15 K, m1 = 0.035): 1001.87 ± 0.2 kg/m3
speed of sound ([1]; 303.15 K, m1 = 0.035): 1513 ± 1.5 m/s
mass density ([1]; 303.15 K, m1 = 0.035): 1000.46 ± 0.2 kg/m3
speed of sound ([1]; 308.15 K, m1 = 0.035): 1523.5 ± 1.5 m/s
mass density ([1]; 308.15 K, m1 = 0.035): 998.83 ± 0.2 kg/m3
speed of sound ([1]; 313.15 K, m1 = 0.035): 1532.4 ± 1.5 m/s
mass density ([1]; 313.15 K, m1 = 0.035): 997.003 ± 0.2 kg/m3

[Cl-].[Cl-].[Mg+2] [magnesium chloride] + O
speed of sound ([1]; 288.15 K, m1 = 0.035): 1471.1 ± 1.6 m/s
mass density ([1]; 288.15 K, m1 = 0.035): 1002.4 ± 0.26 kg/m3
speed of sound ([1]; 293.15 K, m1 = 0.035): 1487.1 ± 1.6 m/s
mass density ([1]; 293.15 K, m1 = 0.035): 1001.48 ± 0.26 kg/m3
speed of sound ([1]; 298.15 K, m1 = 0.035): 1501.3 ± 1.6 m/s
mass density ([1]; 298.15 K, m1 = 0.035): 1000.31 ± 0.26 kg/m3
speed of sound ([1]; 303.15 K, m1 = 0.035): 1513.5 ± 1.6 m/s
mass density ([1]; 303.15 K, m1 = 0.035): 998.899 ± 0.26 kg/m3
speed of sound ([1]; 308.15 K, m1 = 0.035): 1524 ± 1.6 m/s
mass density ([1]; 308.15 K, m1 = 0.035): 997.276 ± 0.26 kg/m3
mass density ([1]; 313.15 K, m1 = 0.035): 995.455 ± 0.26 kg/m3

[Cl-].[K+] [potassium chloride] + O
speed of sound ([1]; 288.15 K, m1 = 0.035): 1468.5 ± 1.5 m/s
mass density ([1]; 288.15 K, m1 = 0.035): 1000.79 ± 0.2 kg/m3
speed of sound ([1]; 293.15 K, m1 = 0.035): 1484.5 ± 1.5 m/s
mass density ([1]; 293.15 K, m1 = 0.035): 999.873 ± 0.2 kg/m3
speed of sound ([1]; 298.15 K, m1 = 0.035): 1498.7 ± 1.5 m/s
mass density ([1]; 298.15 K, m1 = 0.035): 998.698 ± 0.2 kg/m3
speed of sound ([1]; 303.15 K, m1 = 0.035): 1510.9 ± 1.5 m/s
mass density ([1]; 303.15 K, m1 = 0.035): 997.288 ± 0.2 kg/m3
speed of sound ([1]; 308.15 K, m1 = 0.035): 1521.5 ± 1.5 m/s
mass density ([1]; 308.15 K, m1 = 0.035): 995.661 ± 0.2 kg/m3
speed of sound ([1]; 313.15 K, m1 = 0.035): 1530.5 ± 1.5 m/s
mass density ([1]; 313.15 K, m1 = 0.035): 993.836 ± 0.2 kg/m3

O=C([O-])[O-].[Na+].[Na+] [sodium carbonate] + O
speed of sound ([1]; 288.15 K, m1 = 0.035): 1473.1 ± 1.4 m/s
mass density ([1]; 288.15 K, m1 = 0.035): 1003.04 ± 0.17 kg/m3
speed of sound ([1]; 293.15 K, m1 = 0.035): 1489.1 ± 1.4 m/s
mass density ([1]; 293.15 K, m1 = 0.035): 1002.09 ± 0.17 kg/m3
speed of sound ([1]; 298.15 K, m1 = 0.035): 1503 ± 1.4 m/s
mass density ([1]; 298.15 K, m1 = 0.035): 1000.88 ± 0.17 kg/m3
speed of sound ([1]; 303.15 K, m1 = 0.035): 1515.2 ± 1.4 m/s
mass density ([1]; 303.15 K, m1 = 0.035): 999.439 ± 0.17 kg/m3
speed of sound ([1]; 308.15 K, m1 = 0.035): 1525.7 ± 1.4 m/s
mass density ([1]; 308.15 K, m1 = 0.035): 997.791 ± 0.17 kg/m3
speed of sound ([1]; 313.15 K, m1 = 0.035): 1534.6 ± 1.4 m/s
mass density ([1]; 313.15 K, m1 = 0.035): 995.95 ± 0.17 kg/m3

[Cl-].[Na+] [sodium chloride] + O
speed of sound ([1]; 288.15 K, m1 = 0.035): 1468.8 ± 1.5 m/s
mass density ([1]; 288.15 K, m1 = 0.035): 1000.55 ± 0.2 kg/m3
speed of sound ([1]; 293.15 K, m1 = 0.035): 1484.9 ± 1.5 m/s
mass density ([1]; 293.15 K, m1 = 0.035): 999.636 ± 0.2 kg/m3
mass density ([1]; 298.15 K, m1 = 0.035): 998.457 ± 0.2 kg/m3
speed of sound ([1]; 303.15 K, m1 = 0.035): 1511.3 ± 1.5 m/s
mass density ([1]; 303.15 K, m1 = 0.035): 997.046 ± 0.2 kg/m3
speed of sound ([1]; 308.15 K, m1 = 0.035): 1521.9 ± 1.5 m/s
mass density ([1]; 308.15 K, m1 = 0.035): 995.419 ± 0.2 kg/m3
speed of sound ([1]; 313.15 K, m1 = 0.035): 1530.9 ± 1.5 m/s
mass density ([1]; 313.15 K, m1 = 0.035): 993.592 ± 0.2 kg/m3

O=[N+]([O-])[O-].[Na+] [sodium nitrate] + O
speed of sound ([1]; 288.15 K, m1 = 0.035): 1468.2 ± 1.5 m/s
mass density ([1]; 288.15 K, m1 = 0.035): 1001.14 ± 0.2 kg/m3
speed of sound ([1]; 293.15 K, m1 = 0.035): 1484.2 ± 1.5 m/s
mass density ([1]; 293.15 K, m1 = 0.035): 1000.21 ± 0.2 kg/m3
speed of sound ([1]; 298.15 K, m1 = 0.035): 1498.3 ± 1.5 m/s
mass density ([1]; 298.15 K, m1 = 0.035): 999.017 ± 0.2 kg/m3
speed of sound ([1]; 303.15 K, m1 = 0.035): 1510.5 ± 1.5 m/s
mass density ([1]; 303.15 K, m1 = 0.035): 997.592 ± 0.2 kg/m3
speed of sound ([1]; 308.15 K, m1 = 0.035): 1521.1 ± 1.5 m/s
mass density ([1]; 308.15 K, m1 = 0.035): 995.954 ± 0.2 kg/m3
speed of sound ([1]; 313.15 K, m1 = 0.035): 1530.1 ± 1.5 m/s
mass density ([1]; 313.15 K, m1 = 0.035): 994.12 ± 0.2 kg/m3

O=S(=O)([O-])[O-].[Na+].[Na+] [sodium sulfate] + O
speed of sound ([1]; 288.15 K, m1 = 0.035): 1472.6 ± 1.6 m/s
mass density ([1]; 288.15 K, m1 = 0.035): 1003.68 ± 0.26 kg/m3
speed of sound ([1]; 293.15 K, m1 = 0.035): 1488.6 ± 1.6 m/s
mass density ([1]; 293.15 K, m1 = 0.035): 1002.73 ± 0.26 kg/m3
speed of sound ([1]; 298.15 K, m1 = 0.035): 1502.6 ± 1.6 m/s
mass density ([1]; 298.15 K, m1 = 0.035): 1001.52 ± 0.26 kg/m3
speed of sound ([1]; 303.15 K, m1 = 0.035): 1514.8 ± 1.6 m/s
mass density ([1]; 303.15 K, m1 = 0.035): 1000.09 ± 0.26 kg/m3
speed of sound ([1]; 308.15 K, m1 = 0.035): 1525.3 ± 1.6 m/s
mass density ([1]; 308.15 K, m1 = 0.035): 998.436 ± 0.26 kg/m3
speed of sound ([1]; 313.15 K, m1 = 0.035): 1534.2 ± 1.6 m/s
mass density ([1]; 313.15 K, m1 = 0.035): 996.589 ± 0.26 kg/m3

C[N+](C)(C)C.[Cl-] [tetramethylammonium chloride] + O
speed of sound ([1]; 288.15 K, m1 = 0.035): 1470.2 ± 1.8 m/s
mass density ([1]; 288.15 K, m1 = 0.035): 999.201 ± 0.42 kg/m3
speed of sound ([1]; 293.15 K, m1 = 0.035): 1486.1 ± 1.9 m/s
mass density ([1]; 293.15 K, m1 = 0.035): 998.29 ± 0.42 kg/m3
speed of sound ([1]; 298.15 K, m1 = 0.035): 1500.1 ± 1.9 m/s
mass density ([1]; 298.15 K, m1 = 0.035): 997.12 ± 0.42 kg/m3
speed of sound ([1]; 303.15 K, m1 = 0.035): 1512.3 ± 1.9 m/s
mass density ([1]; 303.15 K, m1 = 0.035): 995.716 ± 0.42 kg/m3
speed of sound ([1]; 308.15 K, m1 = 0.035): 1522.8 ± 1.9 m/s
mass density ([1]; 308.15 K, m1 = 0.035): 994.093 ± 0.42 kg/m3
speed of sound ([1]; 313.15 K, m1 = 0.035): 1531.7 ± 1.9 m/s
mass density ([1]; 313.15 K, m1 = 0.035): 992.272 ± 0.42 kg/m3

O=C([O-])CC(O)(CC(=O)[O-])C(=O)[O-].[Na+].[Na+].[Na+] [trisodium citrate] + O
speed of sound ([1]; 288.15 K, m1 = 0.035): 1474.7 ± 1.6 m/s
mass density ([1]; 288.15 K, m1 = 0.035): 1005.71 ± 0.26 kg/m3
speed of sound ([1]; 293.15 K, m1 = 0.035): 1490.6 ± 1.6 m/s
mass density ([1]; 293.15 K, m1 = 0.035): 1004.75 ± 0.26 kg/m3
speed of sound ([1]; 298.15 K, m1 = 0.035): 1504.5 ± 1.6 m/s
mass density ([1]; 298.15 K, m1 = 0.035): 1003.53 ± 0.26 kg/m3
speed of sound ([1]; 303.15 K, m1 = 0.035): 1516.7 ± 1.6 m/s
mass density ([1]; 303.15 K, m1 = 0.035): 1002.08 ± 0.26 kg/m3
speed of sound ([1]; 308.15 K, m1 = 0.035): 1527.1 ± 1.6 m/s
mass density ([1]; 308.15 K, m1 = 0.035): 1000.42 ± 0.26 kg/m3
speed of sound ([1]; 313.15 K, m1 = 0.035): 1536 ± 1.6 m/s
mass density ([1]; 313.15 K, m1 = 0.035): 998.572 ± 0.26 kg/m3

O [water]
speed of sound [2]: 1529.2 ± 1.2 m/s

O [water] + CCCCCCCCCCCCn1cc[n+](C)c1.[Br-]
speed of sound ([1]; 313.15 K, m2 = 0): 1529.2 ± 1.2 m/s
